System: Wistar rats subjected to neonatal monosodium glutamate treatment (MSG)
Test: Acute and subchronic anorectic effects, plasma triglycerides, model of hypothalamic obesity (MSG rats)
Assay type: in vivo
Conditions: 100 µg/kg s.c. twice daily, rat group not specified
Protocol: Solutions were always made fresh approximately 1 hour prior to use and stored at 4°C in sterile tubes.

[1] = normalised within few days of treatment

diuresis [1]: increases
water intake [1]: Initial decreases
plasma parameters of renal function (throughout the experiment): remained normal
SMILES: CCCCCCCCCCCCCCCC(=O)N[C@@H](CCC(=O)NCCCC[C@H](NC(=O)[C@H](C)NC(=O)[C@H](C)NC(=O)[C@H](CCC(N)=O)NC(=O)CNC(=O)[C@H](CCC(=O)O)NC(=O)[C@H](CC(C)C)NC(=O)[C@H](Cc1ccc(O)cc1)NC(=O)[C@H](CO)NC(=O)[C@H](CO)NC(=O)[C@@H](NC(=O)[C@H](CC(=O)O)NC(=O)[C@H](CO)NC(=O)[C@@H](NC(=O)[C@H](Cc1ccccc1)NC(=O)[C@@H](NC(=O)CNC(=O)[C@H](CCC(=O)O)NC(=O)[C@H](C)NC(=O)[C@@H](N)Cc1cnc[nH]1)[C@@H](C)O)[C@@H](C)O)C(C)C)C(=O)N[C@@H](CCC(=O)O)C(=O)N[C@@H](Cc1ccccc1)C(=O)N[C@H](C(=O)N[C@@H](C)C(=O)N[C@@H](Cc1c[nH]c2ccccc12)C(=O)N[C@@H](CC(C)C)C(=O)N[C@H](C(=O)N[C@@H](CCCNC(=N)N)C(=O)NCC(=O)N[C@@H](CCCNC(=N)N)C(=O)NCC(=O)O)C(C)C)[C@@H](C)CC)C(=O)O [GLP1, Arg^34, Lys^26(N^ε-(γ-Glu(N^α-hexadecanoyl)))-GLP-1(7-37)]

From EP1263458B1, “LOWERING SERUM CHOLESTEROL” (NOVO NORDISK A/S, priority 2000, dated 2005)
